Measurements taken from article PMC8842277, “Highly Antiproliferative Latonduine and Indolo[2,3-c]quinoline Derivatives: Complex Formation with Copper(II) Markedly Changes the Kinase Inhibitory Profile” (Journal of Medicinal Chemistry, 2022).

Key:
Experiment in all cases: MTT antiproliferative assay
Type in all cases: cell-based
[1] = test system: multidrug-resistant Colo320 human colon adenocarcinoma cells; conditions: for selectivity factor (SF) Colo320: IC50 MRC-5/IC50 Colo320; for IC50: MTT, 72 h
Experimental: (§1) The in vitro antiproliferative activity of the compounds was tested in doxorubicin-sensitive Colo205 and multidrug-resistant Colo320 human colon adenocarcinoma cell lines as well as in normal human embryonal lung fibroblast cells (MRC-5) by MTT assay.
(§2) Human colonic adenocarcinoma cell lines Colo 205 doxorubicin-sensitive (ATCC-CCL-222) and Colo 320/MDR-LRP multidrug resistant over-expressing ABCB1 (MDR1)-LRP (ATCC-CCL-220.1) were purchased from LGC Promochem, Teddington, UK. The cells were cultured in an RPMI 1640 medium supplemented with 10% heat-inactivated fetal bovine serum, 2 mM L-glutamine, 1 mM Na-pyruvate, and 10 mM HEPES. The semi-adherent human colon cancer cells were detached with Trypsin-Versene (EDTA) solution for 5 min at 37 °C. An MRC-5 human embryonal lung fibroblast cell line (ATCC CCL-171) was purchased from LGC Promochem, Teddington, UK. The cells were cultured in Eagle’s minimal essential medium (EMEM, containing 4.5 g L^–1 glucose) supplemented with a non-essential amino acid mixture, a selection of vitamins, and 10% heat-inactivated fetal bovine serum. The HCT-116 colon carcinoma cells and isogenic p53-knock-out subline were a gift of Prof. Bert Vogelstein from The Johns Hopkins Oncology Center. Cells were cultured in McCoy’s 5A medium supplemented with 10% heat-inactivated fetal bovine serum and 4 mM L-glutamine. All cell lines were incubated at 37 °C, in a 5% CO2, 95% air atmosphere.
(§3) MRC-5 non-cancerous human embryonic lung fibroblast and human colonic adeno-carcinoma cell lines (doxorubicin-sensitive Colo 205 and multidrug resistant Colo 320 colonic adenocarcinoma cells) were used to determine the effect of compounds on cell growth. The effects of increasing concentrations of compounds on cell growth were tested in 96-well flat-bottomed microtiter plates. The compounds were dissolved in DMSO and stock solutions of 10 mM were prepared. These were further diluted in the appropriate cell culture medium by twofold serial dilution starting from 100 or 10 μM for the compounds. The adherent human embryonal lung fibroblast cells were cultured in 96-well flat-bottomed microtiter plates using EMEM supplemented with 10% heat-inactivated fetal bovine serum. The density of the cells was adjusted to 1 × 10^4 cells in 100 μL per well, the cells were seeded for 24 h at 37 °C, 5% CO2, then the medium was removed from the plates containing the cells, and the dilutions of compounds previously made in a separate plate were added to the cells in 200 μL. In the case of the colonic adenocarcinoma cells, the twofold serial dilutions of compounds were prepared in 100 μL of RPMI 1640, horizontally. The semi-adherent colonic adenocarcinoma cells were treated with Trypsin-Versene (EDTA) solution. They were adjusted to a density of 1 × 10^4 cells in 100 μL of RPMI 1640 medium and were added to each well, with the exception of the medium control wells. The final volume of the wells containing compounds and cells was 200 μL. The culture plates were incubated at 37 °C for 72 h; at the end of the incubation period, 20 μL of MTT (thiazolyl blue tetrazolium bromide, Sigma) solution (from a stock solution of 5 mg mL^–1) was added to each well. After incubation at 37 °C for 4 h, 100 μL of sodium dodecyl sulfate (SDS) (Sigma) solution (10% in 0.01 M HCI) was added to each well and the plates were further incubated at 37 °C overnight. Cell growth was determined by measuring the optical density (OD) at 540/630 nm with a Multiscan EX ELISA reader (Thermo Labsystems, Cheshire, WA, USA). […] Curves were fitted by GraphPad Prism software[57] using the sigmoidal dose–response model (comparing variable and fixed slopes). The IC50 values were obtained from at least three independent experiments. Tests in adherent HCT-116 colon carcinoma cells and an isogenic p53-knock-out subline thereof were performed in a similar manner, with 1.5 × 10^3 cells seeded in 100 μL of McCoy’s 5A medium (Sigma-Aldrich) per well. […]

[2] = test system: normal human embryonal lung fibroblast cells (MRC-5); conditions: 72 h, read-out: IC50 MRC-5 benign, mean
Experimental: as §1, §2, §3

[3] = test system: doxorubicin-sensitive Colo205 human colon adenocarcinoma cells; conditions: for selectivity factor (SF) Colo205: IC50 MRC-5/IC50 Colo205; for IC50: MTT, 72 h
Experimental: as §1, §2, §3

Row | Compound | selectivity factor (SF) Colo320 [1] | IC50 [1] [nM] | IC50 [2] [nM] | selectivity factor (SF) Colo205 [3] | IC50 [3] [nM]
1 | CC(=NNC1=NCc2ccccc2-c2c1[nH]c1ccc(Br)cc21)c1ccc(CN2CCOCC2)cn1.[Cl][Cu][Cl] [compound 4, CuCl2(HL^4)·0.5H2O] | 3.64 | 109 | 397 | 1.80 | 220
2 | CC(=NNc1nc2ccccc2c2c1[nH]c1ccc(Br)cc12)c1ccc(CN2CCOCC2)cn1.[Cl][Cu][Cl] [compound 8, CuCl2(HL^8)·H2O] | 0.30 | 547 | 165 | 4.38 | 38
